Molecules are shown by their SMILES. Values after ≈ are worked out from the molar mass of the structure shown.

Among the test systems are Escherichia coli TEM; Escherichia coli EC14; Escherichia coli N10.
Conditions in all cases: agar dilution
In test [1] the test system is Klebsiella pneumoniae X68.
Test [2] has as its system Staphylococcus epidermidis 222.
Test [3] deals with Streptococcus sp. group D 2041.
Test [4] deals with Streptococcus pneumoniae Park 1.
The test system of test [5] is Staphylococcus aureus V41.
Test [6] concerns Haemophilus influenzae C.L.
The test system of test [7] is Streptococcus pyogenes C203.
Test [8] concerns Haemophilus influenzae 76.
Test [9] has as its system Streptococcus faecium ATCC 9790.
For test [10], the system named is Staphylococcus aureus X400.
Test [11] has as its system Klebsiella pneumoniae KAE.
Test [12] relates to Staphylococcus aureus NRRL B313.
Test [13] relates to Klebsiella pneumoniae X26.
The test system of test [14] is Staphylococcus epidermidis EPI1.
The test system of test [15] is Staphylococcus aureus S13E.

Consider `CNC(CC(C)C)C(=O)NC1C(=O)NC(CC(N)=O)C(=O)NC2C(=O)NC3C(=O)NC(C(=O)NC(C(=O)O)c4cc(O)cc(O)c4-c4cc3ccc4O)C(O)c3ccc(c(Cl)c3)Oc3cc2cc(c3OC2OC(CO)C(O)C(O)C2OC2CC(C)(NC(=O)CC(C)C)C(O)C(C)O2)Oc2ccc(cc2Cl)C1O` (stereo not drawn) [Compound 34, N^van --(1-oxo-isopentyl)vancomycin], for which the MIC result is “-- (not active at 128 mcg/ml)” in test [1]; 4 µg/mL (≈ 2.61 µM) in test [2]; 8 µg/mL (≈ 5.22 µM) in test [3]; 1 µg/mL (≈ 0.652 µM) in test [4]; 2 µg/mL (≈ 1.3 µM) in test [5]; “-- (not active at 128 mcg/ml)” in test [6]. Moreover, the MIC in test [7] was 1 µg/mL (≈ 0.652 µM); with Escherichia coli TEM, “-- (not active at 128 mcg/ml)”; in test [8], “-- (not active at 128 mcg/ml)”; in test [9], 2 µg/mL (≈ 1.3 µM); in [10], 2 µg/mL (≈ 1.3 µM); in [11], “-- (not active at 128 mcg/ml)”. Besides, the MIC in [12] is 2 µg/mL (≈ 1.3 µM); with Escherichia coli EC14, “-- (not active at 128 mcg/ml)”; in [13] it was “-- (not active at 128 mcg/ml)”; in [14] it was 8 µg/mL (≈ 5.22 µM); in test [15] it was 2 µg/mL (≈ 1.3 µM); in the test with Escherichia coli N10, “-- (not active at 128 mcg/ml)”.
For the compound `CNC(CC(C)C)C(=O)NC1C(=O)NC(CC(N)=O)C(=O)NC2C(=O)NC3C(=O)NC(C(=O)NC(C(=O)O)c4cc(O)cc(O)c4-c4cc3ccc4O)C(O)c3ccc(c(Cl)c3)Oc3cc2cc(c3OC2OC(CO)C(O)C(O)C2OC2CC(C)(NC(=O)C(NC(=O)OCc3ccccc3)C(C)C)C(O)C(C)O2)Oc2ccc(cc2Cl)C1O` (stereo not drawn) [Compound 32, N^van-[2-(N--Cbz--amino)-1-oxo-isopentyl]vancomycin], the MIC entry is “-- (not active at 128 mcg/ml)” in test [1]; 8 µg/mL (≈ 4.75 µM) in test [2]; 8 µg/mL (≈ 4.75 µM) in [3]; 2 µg/mL (≈ 1.19 µM) in test [4]; 4 µg/mL (≈ 2.38 µM) in test [5]; 128 µg/mL (≈ 76.1 µM) in test [6]. In addition, the MIC in test [7] is 2 µg/mL (≈ 1.19 µM); against Escherichia coli TEM it was “-- (not active at 128 mcg/ml)”; in [8] it was 128 µg/mL (≈ 76.1 µM); in [9] it was 4 µg/mL (≈ 2.38 µM); in test [10] it was 8 µg/mL (≈ 4.75 µM); in test [11], “-- (not active at 128 mcg/ml)”. The MIC was 4 µg/mL (≈ 2.38 µM) in test [12]; “-- (not active at 128 mcg/ml)” in the test on Escherichia coli EC14; “-- (not active at 128 mcg/ml)” in test [13]; 32 µg/mL (≈ 19 µM) in test [14]; 4 µg/mL (≈ 2.38 µM) in test [15]; “-- (not active at 128 mcg/ml)” with Escherichia coli N10.
`CCCCCCCC(=O)N(C)C(CC(C)C)C(=O)NC1C(=O)NC(CC(N)=O)C(=O)NC2C(=O)NC3C(=O)NC(C(=O)NC(C(=O)O)c4cc(O)cc(O)c4-c4cc3ccc4O)C(O)c3ccc(c(Cl)c3)Oc3cc2cc(c3OC2OC(CO)C(O)C(O)C2OC2CC(C)(N)C(O)C(C)O2)Oc2ccc(cc2Cl)C1O` (stereo not drawn) [Compound 4, N^leu --(1-oxo-n-octyl)vancomycin]: the MIC entry in test [1] was “-- (not active at 128 mcg/ml)”; in test [2], 16 µg/mL (≈ 10.2 µM); in [3], 16 µg/mL (≈ 10.2 µM); in test [4], 2 µg/mL (≈ 1.27 µM); in test [5] it was 8 µg/mL (≈ 5.08 µM); in test [6], “-- (not active at 128 mcg/ml)”. The MIC in [7] was 4 µg/mL (≈ 2.54 µM); in the test with Escherichia coli TEM, “-- (not active at 128 mcg/ml)”; in test [8], “-- (not active at 128 mcg/ml)”; in [9], 8 µg/mL (≈ 5.08 µM); in [10], 8 µg/mL (≈ 5.08 µM); in test [11], “-- (not active at 128 mcg/ml)”. For the same compound, the MIC in [12] was 8 µg/mL (≈ 5.08 µM); in the test on Escherichia coli EC14, “-- (not active at 128 mcg/ml)”; in [13], “-- (not active at 128 mcg/ml)”; in test [14], 32 µg/mL (≈ 20.3 µM); in test [15], 8 µg/mL (≈ 5.08 µM); in the test with Escherichia coli N10, “-- (not active at 128 mcg/ml)”.
`CNC(CC(C)C)C(=O)NC1C(=O)NC(CC(N)=O)C(=O)NC2C(=O)NC3C(=O)NC(C(=O)NC(C(=O)O)c4cc(O)cc(O)c4-c4cc3ccc4O)C(O)c3ccc(c(Cl)c3)Oc3cc2cc(c3OC2OC(CO)C(O)C(O)C2OC2CC(C)(NC(=O)C(N)C(C)C)C(O)C(C)O2)Oc2ccc(cc2Cl)C1O` (stereo not drawn) [Compound 33, N^van --(2-amino-1-oxo-isopentyl)vancomycin]: the MIC result in test [1] is “-- (not active at 128 mcg/ml)”; in test [2], 32 µg/mL (≈ 20.7 µM); in test [3] it was 32 µg/mL (≈ 20.7 µM); in test [4], 8 µg/mL (≈ 5.17 µM); in [5] it was 8 µg/mL (≈ 5.17 µM); in test [6], “-- (not active at 128 mcg/ml)”. The MIC in test [7] was 8 µg/mL (≈ 5.17 µM); against Escherichia coli TEM, “-- (not active at 128 mcg/ml)”; in [8] it was “-- (not active at 128 mcg/ml)”; in [9], 8 µg/mL (≈ 5.17 µM); in test [10] it was 32 µg/mL (≈ 20.7 µM); in test [11], “-- (not active at 128 mcg/ml)”. Further, the MIC in test [12] was 8 µg/mL (≈ 5.17 µM); against Escherichia coli EC14, “-- (not active at 128 mcg/ml)”; in test [13], “-- (not active at 128 mcg/ml)”; in test [14], 32 µg/mL (≈ 20.7 µM); in test [15], 8 µg/mL (≈ 5.17 µM); against Escherichia coli N10, “-- (not active at 128 mcg/ml)”.
Consider `C=CCCCCCCCCC(=O)N(C)C(CC(C)C)C(=O)NC1C(=O)NC(CC(N)=O)C(=O)NC2C(=O)NC3C(=O)NC(C(=O)NC(C(=O)O)c4cc(O)cc(O)c4-c4cc3ccc4O)C(O)c3ccc(c(Cl)c3)Oc3cc2cc(c3OC2OC(CO)C(O)C(O)C2OC2CC(C)(N)C(O)C(C)O2)Oc2ccc(cc2Cl)C1O` (stereo not drawn) [Compound 10, N^leu --(1-oxo-10-n-decenyl)vancomycin], for which the MIC entry in test [1] is “-- (not active at 128 mcg/ml)”; in test [2], 8 µg/mL (≈ 4.95 µM); in [3] it was 4 µg/mL (≈ 2.48 µM); in test [4] it was 2 µg/mL (≈ 1.24 µM); in [5], 4 µg/mL (≈ 2.48 µM); in test [6], “-- (not active at 128 mcg/ml)”. The MIC was 1 µg/mL (≈ 0.619 µM) in test [7]; “-- (not active at 128 mcg/ml)” against Escherichia coli TEM; “-- (not active at 128 mcg/ml)” in test [8]; 2 µg/mL (≈ 1.24 µM) in test [9]; 4 µg/mL (≈ 2.48 µM) in test [10]; “-- (not active at 128 mcg/ml)” in test [11]. Besides, the MIC in [12] was 4 µg/mL (≈ 2.48 µM); with Escherichia coli EC14, “-- (not active at 128 mcg/ml)”; in [13], “-- (not active at 128 mcg/ml)”; in [14], 32 µg/mL (≈ 19.8 µM); in test [15] it was 4 µg/mL (≈ 2.48 µM); in the test on Escherichia coli N10, “-- (not active at 128 mcg/ml)”.
